Source: patent US12441980B2, “Methods for overcoming glutamine deprivation during mammalian cell culture” (priority 2014, dated 2025)

Columns and labels:
[1] = tested on: anti alpha-synuclein CHO cells; experiment: Transition of anti alpha-synuclein CHO cells from glutamine-containing to glutamine-free media: growth rate and viability
Method: Anti alpha-synuclein cells were transferred from glutamine-containing media to glutamine-free media using a 1:5 split ratio on Day 0. Cells were cultured at 36° C., 5% CO2 in 500 mL shake flasks and passaged every 4 days using glutamine-free media+10 mg/L insulin (first bar in FIG. 7A, diamond in FIG. 7B), glutamine-free media+10 mg/L insulin, 100 μM hypoxanthine, 16 μM thymidine (second bar in FIG. 7A, square in FIG. 7B), glutamine-free media+10 mg/L insulin, 500 μM adenosine (third bar in FIG. 7A, triangle in FIG. 7B), or glutamine-free media+10 mg/L insulin, 100 μM adenosine (fourth bar in FIG. 7A, circle in FIG. 7B), using a 1:5 split ratio.
Offline analysis: Samples were taken on most days and analyzed with a variety of equipment. Cell density and viability were measured using the standard technique of trypan blue exclusion using a Cedex (Roche Innovatis AG, Germany). Cell viability and growth rate of the various cultures were measured during the culture time course at specific days post-inoculation.
Anti alpha-synuclein CHO cells were transferred from glutamine-containing media to glutamine-free media using a 1:5 split ratio on Day 0.

[2] = tested on: mammalian cells expressing an immunoadhesin (DG44); experiment: Transition of immunoadhesin-expressing cells from glutamine-containing to glutamine-free media: cell viability and growth rate (trypan blue exclusion, Cedex); assay type: cell-based; settings: 2.5 μM corticosteroid in glutamine-free media; FIG. 3
From the text: Cell culture methods: Cells were thawed and maintained as in a previous report (Kshirsagar, et al. 2012 Biotechnol Bioeng, Huang, et al. Biotechnology Progress 26(5):1400-1410 (2010)). Basal medium for thaw and passing was the same as in previous reports (Kshirsagar/Huang).

| Compound | toxicity (concentration-dependent response) ([1]; 500 μM supplementation compared to 100 μM supplementation) | viability during transition to glutamine-free media ([1]; HT 100 μM/16 μM, adenosine 500 μM or 100 μM, FIG. 7B) | transitional growth rate ([1]; transition to glutamine-free media, 1:5 split ratio, HT 100 μM/16 μM, adenosine 100 or 500 μM, FIG. 7A) | viability drop vs control condition [2] | viability recovery period [2] |
| --- | --- | --- | --- | --- | --- |
| Nc1ncnc2c1ncn2[C@@H]1O[C@H](CO)[C@@H](O)[C@H]1O [adenosine] | slightly toxic | maintains | boosted the transitional growth rate | – | – |
| C[C@]12CCC(=O)C=C1CC[C@@H]1[C@@H]2[C@@H](O)C[C@@]2(C)[C@H]1CC[C@]2(O)C(=O)CO [hydrocortisone] | – | – | – | prevented the sharp viability drop | shortened the viability recovery period |
| C[C@]12C=CC(=O)C=C1CC[C@@H]1[C@@H]2[C@@H](O)C[C@@]2(C)[C@H]1CC[C@]2(O)C(=O)CO [prednisolone] | – | – | – | prevented the sharp viability drop | shortened the viability recovery period |
